Assay results reported in publication PMC11729428, “New Potent Inhibitor of Transforming Growth Factor-Beta (TGFβ) Signaling that is Efficacious against Microsatellite Stable Colorectal Cancer Metastasis in Combination with Immune Checkpoint Therapy in Mice” (ACS Pharmacology & Translational Science, 2024).
Values joined by “and” are separate entries in the source; they are usually repeats but may differ in a detail not shown here. Equal values may be shown once. Read-outs that look alike come from different tables or passages of the source.

Columns and labels:
hERG potassium channel = hERG potassium channel (Homo sapiens, UniProt Q12809); experiment: in vitro; settings: CHO-K1 cells (hERG current)
Protocol: clamp (Eurofins, Celle L’Evescault, France) on CHO -K1 cells. The tail current amplitude, induced by a one
second test pulse to -40 mV after a two second pulse to +20 mV, was measured before and aft er drug incubation
and expressed as % inhibition.

[1] = system: Salmonella typhimurium strains TA98, TA100, TA1535 and TA1537; experiment: Ames test; type: cell-based
Protocol: The mutagenic potential of HYL001 was evaluated by the Ames test, assessing its ability to induce reverse mutations in the histidine operon of Salmonella typhimurium strains that allow for detection of both substitution mutations (TA100 and TA1535) and frameshift mutations (TA98 and TA1537). The mutagenic potential of HYL001 was tested at 6 concentrations (semilog 1–320 μg/mL) alone or in the presence of liver S9 fractions. […]
The Ames test was performed at Xenomatrix (Allschwil, Switzerland). Bacteria from the S. typhimurium […]
negative control, for 90 minutes in medium containing sufficient histidine to support approximately two cell divisions. After exposure, the cultures were diluted in pH indicator medium lacking histidine or tryptophan and aliquoted into 48 wells of a 384-well plate. Within two days, cells that have undergone reversion to amino acid prototrophy grow into colonies. The number of wells containing revertant colonies were counted by pH indicator colour change for each dose and compared to a solvent (negative) control. A dose dependent increase in the number of revertant colonies upon exposure to HYL001 would have indicated mutagenicity.

ALK5 (TGFBR1) [2] = target: T1, ALK5 (TGFBR1) (Homo sapiens, UniProt P36897, T204D); experiment: Radiometric in vitro kinase activity assay (Kinase Profiler); type: biochemical
T1 sequence (P36897 200-503 T204D): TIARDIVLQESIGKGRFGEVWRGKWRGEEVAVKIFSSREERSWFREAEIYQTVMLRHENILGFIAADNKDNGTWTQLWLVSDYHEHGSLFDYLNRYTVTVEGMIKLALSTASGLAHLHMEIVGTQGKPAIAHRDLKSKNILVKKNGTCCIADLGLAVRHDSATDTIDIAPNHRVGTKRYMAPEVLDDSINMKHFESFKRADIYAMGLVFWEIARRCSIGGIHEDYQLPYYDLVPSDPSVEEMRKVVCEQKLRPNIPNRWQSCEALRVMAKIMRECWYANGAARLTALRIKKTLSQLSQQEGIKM
Protocol: (§1) 5. Methods for In vitro characterizations of HYL001
Kinase affinity and selectivity […]
The activity, measured as IC50, of inhibitors was determined by radiometric γ-33P-ATP-mediated in vitro phosphorylation assays, using the Kinase Profiler service from Eurofins Pharma Discovery Services (Wolverhampton, UK) and Eurofins Cerep (Celle L’Evescault, France). Compounds, prepared in 100% DMSO, were tested using a 9-point curve with half -log serial dilutions (1–10,000 nM). […]

ALK4 (ACVR1B) [3] = target: T2, ALK4 (ACVR1B) (Homo sapiens, UniProt P36896); experiment: KINOMEscan competitive binding assay (Kd); settings: analyses herein; read-out: Binding constant (Kd) ALK4 (ACVR1B)
T2 sequence (P36896 24-505): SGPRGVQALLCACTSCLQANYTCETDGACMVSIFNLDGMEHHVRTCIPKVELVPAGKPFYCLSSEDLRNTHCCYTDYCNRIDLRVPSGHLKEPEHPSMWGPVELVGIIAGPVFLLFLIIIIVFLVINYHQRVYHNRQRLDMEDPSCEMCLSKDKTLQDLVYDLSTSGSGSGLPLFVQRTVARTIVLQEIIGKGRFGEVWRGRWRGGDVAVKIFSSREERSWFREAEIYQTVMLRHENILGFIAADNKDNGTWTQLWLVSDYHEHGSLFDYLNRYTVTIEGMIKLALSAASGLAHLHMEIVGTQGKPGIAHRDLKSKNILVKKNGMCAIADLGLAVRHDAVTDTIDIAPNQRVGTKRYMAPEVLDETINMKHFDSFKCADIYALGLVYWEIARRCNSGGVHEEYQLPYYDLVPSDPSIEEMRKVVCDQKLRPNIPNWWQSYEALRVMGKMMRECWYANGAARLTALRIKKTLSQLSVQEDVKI
Protocol: as §1
(§2) Kinase affinity and selectivity
(§3) The affinity of the ALK5 inhibitor HYL001 was determined for the ALK kinase family using the […]
(§4) DNA-tagged kinases and immobilized assay ligands, using quantitative PCR —run by Eurofins/DiscoveryX (Birmingham AL, USA). Dissociation constants were calculated by measuring the amount of kinase captured on the solid support as a function of the test compound concentration. Kd values were obtained by an 11 -point half-log dilution range of 0.5–30,000 nM of inhibitor for ALK1 (ACVRL1), ALK2 (ACVR1), ALK3 (BMPR1A), ALK4 (ACVR1B), ALK6 (BMPR1B), ACVR2B and TGFβ R2. In addition, this technology was used to assess selectivity towards a panel of 97 Kinases (scanEDGE) by Eurofins Panlabs (Grapevine TX, USA).
(§5) The strength of competitive binding, defined as the percentage of binding inhibition of kinases to assay ligan d, was visualized using the TREEspot software (DiscoverRx Corporation) and a selectivity score was calculated (the fraction of non -mutated kinases tested with competitive binding inhibition above threshold percentages 65 […]

ALK5 (TGFBR1) [4] = target: ALK5 (TGFBR1) (Homo sapiens, UniProt P36897); experiment: KINOMEscan competitive binding assay (Kd); settings: analyses herein; HYL001 run twice, average 22.5 nM; read-out: Binding constant (Kd) ALK5 (TGFBR1)
Protocol: as §1, §2, §3, §4, §5

[5] = system: TGFβ targets (phospho-SMAD2, CTHRC1, Caldesmon); experiment: Protein expression of TGFβ targets in established liver metastases; type: in vivo; settings: mice with established liver metastases
Description: (Figure S4). […] Moreover, these mice were resistant to immune checkpoint therapy like human patients with pMMR/MSS CRC are in the clinic.[5],[33]

ALK2 (ACVR1) = target: T3, ALK2 (ACVR1) (Homo sapiens, UniProt Q04771); experiment: KINOMEscan competitive binding assay (Kd); settings: analyses herein; read-out: Binding constant (Kd) ALK2 (ACVR1)
T3 construct: purchased Eurofins/DiscoveryX (KINOMEscan service)
Description: as §1, §2
Kd values were obtained by an 11 -point
(BMPR1A), ALK4 (ACVR1B), ALK6 (BMPR1B), ACVR2B and TGFβ R2. […]

ALK4 (ACVR1B) [6] = target: T2, ALK4 (ACVR1B); settings: reported data ref 15, read-out: Binding constant (Kd) ALK4 (ACVR1B), cited from earlier work

hERG potassium channel, sequence (Q12809 whole entry): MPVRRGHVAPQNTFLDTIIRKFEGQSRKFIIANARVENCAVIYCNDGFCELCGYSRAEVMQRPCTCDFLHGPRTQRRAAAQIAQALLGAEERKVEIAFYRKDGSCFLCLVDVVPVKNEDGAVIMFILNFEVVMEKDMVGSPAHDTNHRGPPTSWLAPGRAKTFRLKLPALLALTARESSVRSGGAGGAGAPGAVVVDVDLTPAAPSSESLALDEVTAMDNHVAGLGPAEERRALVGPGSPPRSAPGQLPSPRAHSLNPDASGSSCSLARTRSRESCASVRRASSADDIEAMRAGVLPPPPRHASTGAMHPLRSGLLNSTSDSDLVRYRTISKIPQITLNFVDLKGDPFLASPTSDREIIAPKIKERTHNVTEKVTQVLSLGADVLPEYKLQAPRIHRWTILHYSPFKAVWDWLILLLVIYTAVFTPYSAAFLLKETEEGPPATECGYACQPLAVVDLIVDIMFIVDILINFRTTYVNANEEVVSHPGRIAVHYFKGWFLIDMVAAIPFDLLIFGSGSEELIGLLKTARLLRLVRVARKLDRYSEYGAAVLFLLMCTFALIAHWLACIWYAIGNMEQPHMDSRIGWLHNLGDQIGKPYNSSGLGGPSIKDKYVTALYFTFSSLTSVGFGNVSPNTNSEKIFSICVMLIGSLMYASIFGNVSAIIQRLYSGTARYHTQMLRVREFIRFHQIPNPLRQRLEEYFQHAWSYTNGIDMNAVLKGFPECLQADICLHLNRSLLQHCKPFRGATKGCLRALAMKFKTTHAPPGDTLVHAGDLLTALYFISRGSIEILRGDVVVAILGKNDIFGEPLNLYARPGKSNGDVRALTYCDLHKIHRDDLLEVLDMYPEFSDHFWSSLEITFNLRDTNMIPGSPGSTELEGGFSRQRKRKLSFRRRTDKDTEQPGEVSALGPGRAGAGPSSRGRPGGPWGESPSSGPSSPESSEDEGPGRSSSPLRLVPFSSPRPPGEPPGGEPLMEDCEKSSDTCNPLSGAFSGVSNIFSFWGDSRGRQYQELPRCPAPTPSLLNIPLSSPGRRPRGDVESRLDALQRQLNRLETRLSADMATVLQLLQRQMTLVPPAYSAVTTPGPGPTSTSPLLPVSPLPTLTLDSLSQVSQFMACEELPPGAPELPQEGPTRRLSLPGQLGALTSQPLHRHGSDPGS
ALK5 (TGFBR1) (Homo sapiens, UniProt P36897), sequence (P36897 34-503): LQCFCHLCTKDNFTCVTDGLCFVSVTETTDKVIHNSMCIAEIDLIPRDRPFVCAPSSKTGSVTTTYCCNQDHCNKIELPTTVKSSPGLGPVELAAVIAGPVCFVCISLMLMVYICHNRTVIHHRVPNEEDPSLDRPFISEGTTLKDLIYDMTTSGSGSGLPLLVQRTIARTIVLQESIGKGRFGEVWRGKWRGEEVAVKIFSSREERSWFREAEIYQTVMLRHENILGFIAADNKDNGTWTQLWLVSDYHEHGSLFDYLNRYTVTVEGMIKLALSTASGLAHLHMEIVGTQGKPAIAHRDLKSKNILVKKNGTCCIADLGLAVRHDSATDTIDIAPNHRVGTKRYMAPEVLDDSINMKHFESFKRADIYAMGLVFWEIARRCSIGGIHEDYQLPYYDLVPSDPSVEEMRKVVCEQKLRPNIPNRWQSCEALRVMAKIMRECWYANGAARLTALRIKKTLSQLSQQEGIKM
T3 sequence (Q04771 21-509): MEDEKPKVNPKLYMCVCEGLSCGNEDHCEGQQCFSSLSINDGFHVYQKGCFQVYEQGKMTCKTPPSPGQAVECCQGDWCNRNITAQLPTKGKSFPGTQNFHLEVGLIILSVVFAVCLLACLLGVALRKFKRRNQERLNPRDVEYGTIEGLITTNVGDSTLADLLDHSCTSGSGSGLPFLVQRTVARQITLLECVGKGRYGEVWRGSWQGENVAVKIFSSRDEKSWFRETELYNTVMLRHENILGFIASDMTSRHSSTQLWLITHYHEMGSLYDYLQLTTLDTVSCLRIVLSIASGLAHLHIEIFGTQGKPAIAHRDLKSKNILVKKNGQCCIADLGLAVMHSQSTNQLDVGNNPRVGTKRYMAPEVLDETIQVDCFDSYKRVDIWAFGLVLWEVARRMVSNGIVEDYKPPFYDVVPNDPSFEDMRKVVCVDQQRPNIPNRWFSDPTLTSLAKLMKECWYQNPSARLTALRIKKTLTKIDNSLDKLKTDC

Cc1cccc(-c2nn3c(c2-c2ccnc4ccc(O)cc24)CCC3)n1 [HYL001, 4-(2-(6-Methylpyridin-2-yl)-5,6-dihydro-4H-pyrrolo[1,2-b]pyrazol-3-yl)quinolin-6-ol]
inhibition at 3.7 µM (hERG potassium channel): 1.8%
inhibition at 11.1 µM (hERG potassium channel): 8.4%
inhibition at 33.3 µM (hERG potassium channel): 22.8%
Positive mutagenic responses (Ames test) ([1]; 6 concentrations 1–320 μg/mL, alone or with liver S9, all strains): No positive mutagenic responses
Dose dependency ([1]; TA98, w/o S9): No
Mutagenic data points ([1]; TA98, w/o S9): No
Dose dependency ([1]; TA98, with S9): No
Mutagenic data points ([1]; TA98, with S9): No
Dose dependency ([1]; TA100, w/o S9): No
Mutagenic data points ([1]; TA100, w/o S9): No
Dose dependency ([1]; TA100, with S9): No
Mutagenic data points ([1]; TA100, with S9): No
Dose dependency ([1]; TA1535, w/o S9): No
Mutagenic data points ([1]; TA1535, w/o S9): No
Dose dependency ([1]; TA1535, with S9): No
Mutagenic data points ([1]; TA1535, with S9): No
Dose dependency ([1]; TA1537, w/o S9): No
Mutagenic data points ([1]; TA1537, w/o S9): No
Dose dependency ([1]; TA1537, with S9): No
Mutagenic data points ([1]; TA1537, with S9): No
Fold higher ALK5 IC50 than that of vactosertib (ALK5 (TGFBR1) [2]): around 3.5 fold
Fold increase (in vitro potency) compared to galunisertib (ALK5 (TGFBR1) [2]; ALK5 IC50): ~2.5 fold
IC50 (ALK5 (TGFBR1) [2]; recombinant TGFBR1 fragment 200–end (T204D), read-out: kinase inhibition IC50, ALK5 (TGFBR1)): 177 nM
Kd (ALK4 (ACVR1B) [3]): 13 nM
Kd (ALK5 (TGFBR1) [4]): 25 nM and 22.5 nM
Protein expression of TGFβ targets (phospho-SMAD2, CTHRC1, Caldesmon) [5]: marked decrease
Kd (ALK2 (ACVR1)): 7500 nM

Cc1cccc(-c2nn3c(c2-c2ccnc4ccc(C(N)=O)cc24)CCC3)n1 [galunisertib]
Kd (ALK4 (ACVR1B) [6]; listed as Galunisertib): 77.7 nM
Kd (ALK4 (ACVR1B) [6]): ~78 nM
